Active and inactive are the calls of the source.

The Kd is the constant that tells how readily two partners part at equilibrium.

In test [1] the target is T1, Mitogen-activated protein kinase kinase kinase 6 (Homo sapiens, UniProt O95382).
T1 sequence (O95382 whole entry): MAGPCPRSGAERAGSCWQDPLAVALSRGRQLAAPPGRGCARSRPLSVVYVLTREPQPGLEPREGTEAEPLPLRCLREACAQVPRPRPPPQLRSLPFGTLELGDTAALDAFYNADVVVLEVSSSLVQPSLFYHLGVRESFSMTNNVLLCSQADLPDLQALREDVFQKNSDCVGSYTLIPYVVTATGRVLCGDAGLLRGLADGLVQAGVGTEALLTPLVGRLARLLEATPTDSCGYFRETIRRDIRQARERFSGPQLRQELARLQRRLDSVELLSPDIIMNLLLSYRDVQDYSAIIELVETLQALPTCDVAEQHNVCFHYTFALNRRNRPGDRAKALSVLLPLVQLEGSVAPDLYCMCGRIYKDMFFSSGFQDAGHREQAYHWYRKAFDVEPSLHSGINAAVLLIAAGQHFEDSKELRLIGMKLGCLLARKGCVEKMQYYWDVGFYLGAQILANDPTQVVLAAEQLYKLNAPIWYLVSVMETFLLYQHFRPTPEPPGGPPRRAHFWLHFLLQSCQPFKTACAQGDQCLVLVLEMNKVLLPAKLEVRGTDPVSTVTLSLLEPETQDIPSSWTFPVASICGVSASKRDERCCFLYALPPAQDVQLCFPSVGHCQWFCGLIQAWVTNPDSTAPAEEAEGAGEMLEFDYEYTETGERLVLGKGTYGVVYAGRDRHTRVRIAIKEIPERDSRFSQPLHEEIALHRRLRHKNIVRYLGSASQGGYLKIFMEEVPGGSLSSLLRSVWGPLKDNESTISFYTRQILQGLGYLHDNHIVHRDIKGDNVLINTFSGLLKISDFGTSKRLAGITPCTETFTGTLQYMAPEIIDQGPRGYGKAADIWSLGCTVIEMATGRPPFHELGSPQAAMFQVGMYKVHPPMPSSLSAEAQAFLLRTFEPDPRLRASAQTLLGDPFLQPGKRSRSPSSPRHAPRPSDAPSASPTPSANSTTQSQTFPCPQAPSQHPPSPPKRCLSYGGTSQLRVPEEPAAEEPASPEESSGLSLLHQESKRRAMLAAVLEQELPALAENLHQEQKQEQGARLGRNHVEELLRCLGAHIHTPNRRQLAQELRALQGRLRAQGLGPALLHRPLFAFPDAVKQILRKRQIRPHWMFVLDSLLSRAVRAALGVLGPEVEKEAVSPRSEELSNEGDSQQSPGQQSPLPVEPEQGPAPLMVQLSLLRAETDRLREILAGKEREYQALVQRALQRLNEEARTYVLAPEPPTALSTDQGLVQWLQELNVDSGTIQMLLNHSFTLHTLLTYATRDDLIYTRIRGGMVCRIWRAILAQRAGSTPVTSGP

Test [2] deals with Citron Rho-interacting kinase (Homo sapiens, UniProt O14578).
Test [3] has as its target T2, Bone morphogenetic protein receptor type-2 (Homo sapiens, UniProt Q13873).
T2 sequence (Q13873 whole entry): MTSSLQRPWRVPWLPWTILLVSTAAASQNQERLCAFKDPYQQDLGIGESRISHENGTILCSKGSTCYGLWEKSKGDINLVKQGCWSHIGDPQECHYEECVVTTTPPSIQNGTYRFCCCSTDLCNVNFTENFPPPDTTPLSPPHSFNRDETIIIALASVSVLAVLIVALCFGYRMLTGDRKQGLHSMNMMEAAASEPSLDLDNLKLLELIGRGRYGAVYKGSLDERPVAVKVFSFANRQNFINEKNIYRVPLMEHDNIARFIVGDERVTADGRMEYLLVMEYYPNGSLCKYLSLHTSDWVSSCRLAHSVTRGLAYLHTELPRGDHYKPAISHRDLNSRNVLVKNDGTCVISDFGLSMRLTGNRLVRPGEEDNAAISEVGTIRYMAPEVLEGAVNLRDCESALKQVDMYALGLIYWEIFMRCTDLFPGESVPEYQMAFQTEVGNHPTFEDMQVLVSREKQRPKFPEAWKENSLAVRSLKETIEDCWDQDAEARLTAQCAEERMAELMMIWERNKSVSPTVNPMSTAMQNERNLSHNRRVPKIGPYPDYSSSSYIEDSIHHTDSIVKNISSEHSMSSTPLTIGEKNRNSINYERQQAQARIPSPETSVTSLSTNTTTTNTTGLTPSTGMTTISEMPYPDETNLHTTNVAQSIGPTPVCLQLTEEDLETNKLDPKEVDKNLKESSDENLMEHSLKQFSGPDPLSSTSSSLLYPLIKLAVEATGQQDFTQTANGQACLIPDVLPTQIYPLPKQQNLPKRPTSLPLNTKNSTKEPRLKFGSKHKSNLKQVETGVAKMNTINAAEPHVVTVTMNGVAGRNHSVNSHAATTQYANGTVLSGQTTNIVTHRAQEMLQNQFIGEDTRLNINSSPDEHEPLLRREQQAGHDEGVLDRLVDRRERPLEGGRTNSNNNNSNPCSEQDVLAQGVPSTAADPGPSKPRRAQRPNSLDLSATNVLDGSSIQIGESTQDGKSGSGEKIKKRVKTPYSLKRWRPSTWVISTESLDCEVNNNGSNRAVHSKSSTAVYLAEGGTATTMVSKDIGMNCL

For test [4], the target named is Atypical kinase COQ8A, mitochondrial (Homo sapiens, UniProt Q8NI60).
Test [5] deals with Tyrosine-protein kinase HCK (Homo sapiens, UniProt P08631).
Test [6] has as its target T3, Dual specificity mitogen-activated protein kinase kinase 6 (Homo sapiens, UniProt P52564).
T3 sequence (P52564 whole entry): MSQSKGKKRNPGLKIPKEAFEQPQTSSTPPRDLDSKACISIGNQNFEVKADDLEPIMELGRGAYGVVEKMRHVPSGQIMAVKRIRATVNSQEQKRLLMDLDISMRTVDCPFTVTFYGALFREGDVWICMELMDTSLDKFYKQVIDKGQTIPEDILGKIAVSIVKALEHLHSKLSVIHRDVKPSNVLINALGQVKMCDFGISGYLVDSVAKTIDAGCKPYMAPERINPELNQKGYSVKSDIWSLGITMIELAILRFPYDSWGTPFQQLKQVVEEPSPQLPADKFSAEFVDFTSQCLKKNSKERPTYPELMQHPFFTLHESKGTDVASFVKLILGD

Test [7] addresses DnaJ homolog subfamily A member 1 (Homo sapiens, UniProt P31689).
Also: in the data inactive means no Kd found up to 30 µM.

Chain of Atypical kinase COQ8A, mitochondrial (Q8NI60 whole entry): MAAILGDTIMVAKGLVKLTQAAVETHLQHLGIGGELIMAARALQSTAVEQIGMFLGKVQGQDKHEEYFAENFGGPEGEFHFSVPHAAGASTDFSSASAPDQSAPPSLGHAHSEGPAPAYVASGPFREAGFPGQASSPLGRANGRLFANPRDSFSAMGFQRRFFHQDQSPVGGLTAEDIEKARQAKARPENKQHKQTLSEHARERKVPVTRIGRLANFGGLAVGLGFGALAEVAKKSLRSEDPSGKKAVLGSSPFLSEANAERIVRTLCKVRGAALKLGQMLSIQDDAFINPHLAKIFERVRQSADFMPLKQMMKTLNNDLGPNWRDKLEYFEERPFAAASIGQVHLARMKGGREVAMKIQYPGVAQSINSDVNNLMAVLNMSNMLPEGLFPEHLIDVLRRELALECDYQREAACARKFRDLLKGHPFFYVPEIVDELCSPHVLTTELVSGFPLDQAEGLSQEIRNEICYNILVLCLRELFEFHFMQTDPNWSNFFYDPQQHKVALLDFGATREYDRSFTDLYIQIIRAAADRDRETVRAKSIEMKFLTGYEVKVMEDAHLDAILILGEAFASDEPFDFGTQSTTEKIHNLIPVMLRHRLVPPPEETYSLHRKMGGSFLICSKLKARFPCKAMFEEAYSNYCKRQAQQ
Chain of Tyrosine-protein kinase HCK (P08631 whole entry): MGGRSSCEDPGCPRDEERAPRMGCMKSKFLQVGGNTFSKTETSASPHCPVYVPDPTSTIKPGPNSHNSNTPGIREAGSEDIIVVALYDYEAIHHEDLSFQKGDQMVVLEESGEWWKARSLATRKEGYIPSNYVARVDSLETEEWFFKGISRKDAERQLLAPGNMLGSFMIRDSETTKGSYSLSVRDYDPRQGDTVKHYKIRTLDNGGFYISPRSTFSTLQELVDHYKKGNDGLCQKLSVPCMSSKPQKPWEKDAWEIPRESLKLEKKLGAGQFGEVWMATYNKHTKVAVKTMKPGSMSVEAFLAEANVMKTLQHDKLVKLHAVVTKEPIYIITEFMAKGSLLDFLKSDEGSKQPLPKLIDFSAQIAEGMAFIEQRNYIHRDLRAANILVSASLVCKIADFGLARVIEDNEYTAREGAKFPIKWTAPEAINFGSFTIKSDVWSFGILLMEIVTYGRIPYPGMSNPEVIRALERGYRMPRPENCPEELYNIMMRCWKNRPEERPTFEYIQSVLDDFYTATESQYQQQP
Chain of DnaJ homolog subfamily A member 1 (P31689 whole entry): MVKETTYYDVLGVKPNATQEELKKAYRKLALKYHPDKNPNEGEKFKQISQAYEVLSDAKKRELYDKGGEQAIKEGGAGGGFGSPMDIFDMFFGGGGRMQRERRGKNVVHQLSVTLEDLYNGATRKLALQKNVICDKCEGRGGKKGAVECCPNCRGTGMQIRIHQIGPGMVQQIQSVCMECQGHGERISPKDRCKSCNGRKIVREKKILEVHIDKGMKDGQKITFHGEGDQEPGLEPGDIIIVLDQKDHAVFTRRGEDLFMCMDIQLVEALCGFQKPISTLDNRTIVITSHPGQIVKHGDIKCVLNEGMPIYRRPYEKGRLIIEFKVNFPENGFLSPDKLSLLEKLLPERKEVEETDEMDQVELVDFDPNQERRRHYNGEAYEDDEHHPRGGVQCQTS
Chain of Citron Rho-interacting kinase (O14578 whole entry): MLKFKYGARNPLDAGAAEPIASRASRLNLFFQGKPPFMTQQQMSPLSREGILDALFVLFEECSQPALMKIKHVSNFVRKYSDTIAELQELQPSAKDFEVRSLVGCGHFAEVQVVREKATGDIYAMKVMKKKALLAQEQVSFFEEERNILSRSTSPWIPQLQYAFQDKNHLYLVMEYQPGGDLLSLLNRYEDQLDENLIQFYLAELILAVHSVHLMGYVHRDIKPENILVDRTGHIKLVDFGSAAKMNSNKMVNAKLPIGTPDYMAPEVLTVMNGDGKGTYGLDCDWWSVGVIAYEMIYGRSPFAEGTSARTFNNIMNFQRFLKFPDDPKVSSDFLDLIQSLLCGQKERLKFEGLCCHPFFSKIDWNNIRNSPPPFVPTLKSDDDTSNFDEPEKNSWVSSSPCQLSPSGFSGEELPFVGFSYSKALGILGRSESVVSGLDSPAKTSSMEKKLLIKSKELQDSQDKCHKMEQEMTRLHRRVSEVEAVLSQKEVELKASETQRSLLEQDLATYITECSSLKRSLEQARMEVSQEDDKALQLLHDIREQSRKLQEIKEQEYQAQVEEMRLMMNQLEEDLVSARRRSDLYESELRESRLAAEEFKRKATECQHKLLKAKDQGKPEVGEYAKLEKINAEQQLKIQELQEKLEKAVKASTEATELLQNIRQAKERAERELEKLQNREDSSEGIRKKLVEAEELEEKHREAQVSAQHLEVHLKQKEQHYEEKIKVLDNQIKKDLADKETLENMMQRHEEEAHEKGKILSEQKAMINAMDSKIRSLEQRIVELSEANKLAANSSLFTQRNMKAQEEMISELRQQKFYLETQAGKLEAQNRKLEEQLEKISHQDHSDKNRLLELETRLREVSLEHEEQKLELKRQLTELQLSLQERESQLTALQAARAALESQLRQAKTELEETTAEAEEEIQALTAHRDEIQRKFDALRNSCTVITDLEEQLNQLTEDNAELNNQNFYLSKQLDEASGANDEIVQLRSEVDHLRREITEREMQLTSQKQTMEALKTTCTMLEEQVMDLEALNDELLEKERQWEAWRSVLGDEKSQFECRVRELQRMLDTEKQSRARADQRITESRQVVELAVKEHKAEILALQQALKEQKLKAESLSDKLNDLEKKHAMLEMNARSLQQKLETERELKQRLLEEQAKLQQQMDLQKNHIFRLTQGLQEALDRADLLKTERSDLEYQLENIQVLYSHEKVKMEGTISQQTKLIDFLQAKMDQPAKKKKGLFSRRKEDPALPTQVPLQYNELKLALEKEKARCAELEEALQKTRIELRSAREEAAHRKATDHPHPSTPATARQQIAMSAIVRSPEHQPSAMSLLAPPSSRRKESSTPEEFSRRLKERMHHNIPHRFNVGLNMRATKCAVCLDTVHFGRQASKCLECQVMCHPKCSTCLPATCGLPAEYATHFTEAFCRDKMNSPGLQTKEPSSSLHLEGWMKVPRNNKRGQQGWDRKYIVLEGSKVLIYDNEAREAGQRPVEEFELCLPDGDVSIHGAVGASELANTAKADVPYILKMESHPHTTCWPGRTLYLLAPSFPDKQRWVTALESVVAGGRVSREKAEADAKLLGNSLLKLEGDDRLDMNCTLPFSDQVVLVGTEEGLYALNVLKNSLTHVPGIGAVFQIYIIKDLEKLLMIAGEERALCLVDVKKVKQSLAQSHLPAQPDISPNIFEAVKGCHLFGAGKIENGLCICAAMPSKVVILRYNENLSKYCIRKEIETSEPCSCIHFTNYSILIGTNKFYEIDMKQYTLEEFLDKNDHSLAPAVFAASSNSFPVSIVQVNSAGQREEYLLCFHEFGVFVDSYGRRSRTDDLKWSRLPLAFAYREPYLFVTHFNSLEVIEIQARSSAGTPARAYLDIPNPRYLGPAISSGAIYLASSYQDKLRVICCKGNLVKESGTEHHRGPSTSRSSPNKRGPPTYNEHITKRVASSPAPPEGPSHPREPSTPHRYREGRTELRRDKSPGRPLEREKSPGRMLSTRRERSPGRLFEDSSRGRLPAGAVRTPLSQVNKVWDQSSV

`S=C(NCc1ccc2c(c1)OCO2)N1CCN(c2ncnc3c2oc2ccccc23)CC1` [AMUVATINIB]: the Kd in test [1], in test [2], in test [3], in test [4], in test [5] and in test [6] was > 30 µM (inactive) throughout. Besides, the Kd in test [7] was > 30 µM (inactive).
Take `O[C@H]1CC[C@H](Nc2ncc3nc(Nc4c(F)cc(F)cc4F)n([C@H]4CCOC4)c3n2)CC1` [TANZISERTIB]: the Kd in test [1], in test [2], in test [3], in test [4], in test [5] and in test [6] was > 30 µM (inactive) each time. For the same compound, the Kd in test [7] was > 30 µM (inactive).
Consider `COc1cccc2cc(-c3nc([C@H]4CC[C@H](C(=O)O)CC4)n4ncnc(N)c34)[nH]c12` [OSI-027], for which the Kd was > 30 µM (inactive) in test [1]; > 30 µM (inactive) in test [2]; 2.1 µM in test [3]; > 30 µM (inactive) in test [4]; > 30 µM (inactive) in test [5]; > 30 µM (inactive) in test [6]. Also, in test [7], the Kd is > 30 µM (inactive).
Take `Cn1c(=O)n(-c2ccc(C(C)(C)C#N)cc2)c2c3cc(-c4cnc5ccccc5c4)ccc3ncc21` [DACTOLISIB]: the Kd in test [1], in test [2], in test [3], in test [4], in test [5] and in test [6] was > 30 µM (inactive) in each case. In addition, the Kd in test [7] is > 30 µM (inactive).
Regarding `O=c1[nH]c([C@@H]2CCCN2)nc2c1oc1ccc(Cl)cc12`, the Kd was > 30 µM (inactive) in test [1]; 3.66 µM (active) in test [2]; > 30 µM (inactive) in test [3]; > 30 µM (inactive) in test [4]; > 30 µM (inactive) in test [5]; > 30 µM (inactive) in test [6]. Besides, the Kd in test [7] is > 30 µM (inactive).
With `O=C(O)c1ccc2c(c1)nc(Nc1cccc(Cl)c1)c1ccncc12` [SILMITASERTIB], the Kd was > 30 µM (inactive) in test [1]; > 30 µM (inactive) in test [2]; 1.06 µM (active) in test [3]; > 30 µM (inactive) in test [4]; > 30 µM (inactive) in test [5]; > 30 µM (inactive) in test [6]. The Kd in test [7] was > 30 µM (inactive).
For `C[C@@]1(C(=O)Nc2ccc(F)nc2)CCCN1c1nc(Nc2cc(C3CC3)n[nH]2)c2cccn2n1` [BMS-754807], the Kd in test [7] is > 30 µM (inactive).
As for `c1cc(OCCN2CCCCC2)cc(-c2n[nH]c3ccc(-c4nc[nH]n4)cc23)c1` [CC-401], the Kd in test [1], in test [2], in test [3], in test [4], in test [5] and in test [6] was > 30 µM (inactive) throughout. The Kd in test [7] is > 30 µM (inactive).
`CN(c1ncccc1CNc1nc(Nc2ccc3c(c2)CC(=O)N3)ncc1C(F)(F)F)S(C)(=O)=O` [PF-00562271]: the Kd in test [1], in test [2], in test [3], in test [4] and in test [7] was > 30 µM (inactive) each time.
For the compound `N#CCNC(=O)c1ccc(-c2ccnc(Nc3ccc(N4CCOCC4)cc3)n2)cc1` [MOMELOTINIB], the Kd is 0.313 µM (active) in test [2]; > 30 µM (inactive) in test [3]; > 30 µM (inactive) in test [4]; > 30 µM (inactive) in test [6]; > 30 µM (inactive) in test [7].
Consider `COc1cc2c(Oc3ccc4[nH]c(C)cc4c3F)ncnc2cc1OCCCN1CCCC1` [CEDIRANIB], for which, in test [7], the Kd was > 30 µM (inactive).
As for `Cn1cnc2c(F)c(Nc3ccc(Br)cc3Cl)c(C(=O)NOCCO)cc21` [SELUMETINIB], in test [7], the Kd was > 30 µM (inactive).
Still for that read-out and setting: next, `COc1cc2c(N3CCN(C(=O)Nc4ccc(OC(C)C)cc4)CC3)ncnc2cc1OCCCN1CCCCC1` [TANDUTINIB]: > 30 µM (inactive).
On to `CCN(CCCOc1ccc2c(Nc3cc(CC(=O)Nc4cccc(F)c4)n[nH]3)ncnc2c1)CCOP(=O)(O)O` [BARASERTIB], for which the Kd in test [1], in test [2], in test [3], in test [4], in test [6] and in test [7] was > 30 µM (inactive) throughout.
As for `COc1cccc(Nc2ncnn3ccc(CN4CC[C@@H](N)[C@H](O)C4)c23)c1` [BMS-690514], the Kd in test [1] was > 30 µM (inactive); in test [3], > 30 µM (inactive); in test [4] it was > 30 µM (inactive); in test [5] it was 0.712 µM (active); in test [6] it was > 30 µM (inactive); in test [7], > 30 µM (inactive).
Turning to `CC1(C)CNc2cc(NC(=O)c3cccnc3NCc3ccncc3)ccc21` [MOTESANIB], in test [7], the Kd was > 30 µM (inactive).
With `CN(C)C/C=C/C(=O)Nc1cc2c(Nc3ccc(F)c(Cl)c3)ncnc2cc1O[C@H]1CCOC1` [AFATINIB], the Kd in test [7] was > 30 µM (inactive).
Regarding `CCOc1ccn(-c2ccc(F)cc2)c(=O)c1C(=O)Nc1ccc(Oc2ccnc(N)c2Cl)c(F)c1` [BMS-777607], the Kd in test [2], in test [4], in test [5], in test [6] and in test [7] was > 30 µM (inactive) throughout.
Take `CC(C)CC(=O)Nc1[nH]nc2c1CN(C(=O)C1CCN(C)CC1)C2(C)C` [PHA-793887]: the Kd in test [1], in test [2], in test [3], in test [4], in test [5] and in test [7] was > 30 µM (inactive) each time.

The values above are taken from ChEMBL document CHEMBL3991601, “The target landscape of clinical kinase drugs” (Science, 2017).
